Test results published in US11141491B2, “PH-sensitive lipid nanoparticles for encapsulation of anticancer drugs and microRNA and use thereof” (National Yang-Ming University, priority 2018, dated 2021).

Legend:
HCT116 cells [1] = assay: Endocytosis mechanisms for uptake of DiI/Lip-RFKH; format: cell-based, human; details: 3 h-incubation, endocytosis inhibitor added
[2] = Biochemical tests, H&E staining and TUNEL assay in CT26 tumor-bearing mice; format: in vivo; details: 48 h after last treatment
Protocol: Tumor-bearing mice were treated as described above. Blood samples (170 μl) were taken from the orbital sinus of mice 48 h after the final treatment. After harvesting and centrifugation for 15 min, liver, kidney and heart functions were assessed by detecting the serum levels of glutamate pyruvate transaminase (GPT), creatinine (CRE), and creatine kinase-MB (CK-MB) using corresponding activity assay kits (Fujifilm, Tokyo, Japan) and a clinical dry chemistry analyzer (Fuji Dri-Chem 7000V, Fujifilm Corp.). Additionally, the tumors and intestines were fixed in 4% paraformaldehyde overnight, embedded in paraffin, and cut into 5-μm-thick sections for H&E staining, and the histology of these samples was examined using an Olympus microscope.
TUNEL assay was performed to assess in vivo apoptosis in CT26 tumor-bearing mice at 48 h after last treatment of different formulations.^[42] In brief, the samples were frozen and fixed in 4% paraformaldehyde for 20 min. After washing with PBS for 10 min, the samples were immersed on ice for 2 min. After mixing with reaction dispersion (50 μL) according to the manufacture's manual (In Situ Cell Death Detection Kit, Roche, Germany), the section samples were stained with Hoechst in the nuclei for comparison and monitored using CLSM.

[3] = pH-sensitive release (dialysis against PBS); format: physicochemical; details: both pH 7.4 and pH 6.5, 37° C.
Protocol: Irinotecan- or miR-loaded formulations were placed in a dialysis bag (1,000-3,500 MWCO) and dialyzed separately against PBS at pH 7.4 and 6.5. At the indicated time, solution was withdrawn from the incubation medium. The irinotecan concentrations were determined by HPLC to calculate the cumulative drug release %.

HCT116 cells [4] = assay: Cell viability, sulforhodamine B assay, HCT116; format: cell-based, human; details: 48 h, SRB
Protocol: The cytotoxicity of formulations in rat small intestinal epithelial IEC-6 cells and human colorectal cancer HCT116 cells was determined using a sulforhodamine B (SRB) assay. After 48-h incubation with various formulations, the cells were stained with SRB for 10 min. The absorbance at 540 nm was detected with a microplate TECAN reader.

[5] = Biodistribution of irinotecan in CT26/tk-luc-bearing mice; format: in vivo; details: UV spectrophotometer
Protocol: The biodistribution of irinotecan of different formulations in CT26-bearing mice was analyzed by UV spectrophotometer (*statistical significance at P<0.05; **statistical significance at P<0.01; ***statistical significance at P<0.001).

[6] = Biodistribution of irinotecan in SAS-luc-bearing nude mice; format: in vivo; details: UV spectrophotometer
Protocol: The biodistribution of irinotecan of different formulations in SAS-bearing mice was analyzed with UV spectrophotometer. (*statistical significance at P<0.05; **statistical significance at P<0.01; ***statistical significance at P<0.001).

CT26 tumor = assay: In vivo antitumor efficacy, IVIS and PET/CT imaging, body weight in CT26-bearing mice; details: 28 days
Protocol: Male BALB/c mice at the age of 6 weeks with body weights of 20±2 g were purchased from National Laboratory Animal Center (Taipei, Taiwan) and maintained in an individual ventilation cage system. The animals were ensured free access to sterilized food and water. CT-26 (10^5 cells in 0.1 ml PBS) were injected subcutaneously into the right flank of mice to obtain tumor-bearing BALB/c mice. All processes performed on the animals were in accordance with the National Institutes of Health Guide for the Care and Use of Laboratory Animals and were approved by the National Yang-Ming University Animal Committee.
CT-26 cells (10^5 cells in 0.1 ml PBS) were injected subcutaneously into the right flank of mice to obtain tumor-bearing BALB/c mice. When tumor volume reached approximately 100 mm^3 (equation 4), the mice were randomly assigned to six groups (n=5 for each group). […] Mice were injected intravenously (IV) with Iri at 100 mg/kg and miR-200 at 1.25 mg/kg in different formulations every 7 days for 28 days. Fluorescence images were visualized one day after the final treatment using an IVIS […] (Caliper). […]
Tumor images were monitored using PET/CT. […]
Animal body weight and tumor size were detected every 3 or 4 days for 28 days. Tumor size was measured with a digital caliper and the tumor volume (V) was calculated (equation 4).

IEC-6 cells = assay: Cell viability, sulforhodamine B assay, IEC-6; format: cell-based, rat; details: noncancerous IEC-6 cells, 48 h, SRB

In the case of CN(C)CCCN1c2ccccc2Sc2ccc(Cl)cc21 [chlorpromazine], the “relative fluorescence intensity % of DiI/Lip-RFKH” value (HCT116 cells [1]) is reported as “significant decreases”.

For CCc1c2c(nc3ccc(OC(=O)N4CCC(N5CCCCC5)CC4)cc13)-c1cc3c(c(=O)n1C2)COC(=O)[C@]3(O)CC [irinotecan], the “serum CKMB level” value [2] was “provoked”, the “serum CRE level” value [2] was “provoked” and the “serum GPT level” value [2] was “provoked”. The hemolysis (rat blood cells) was “≈ 10%”, the “release within 24 h” value [3] was 100% and the “cytotoxicity / viability of HCT116 cells” value (HCT116 cells [4]; HCT116 cells) was “concentration-dependent inhibition”. The “cytotoxicity in HCT116 cells” value (HCT116 cells [4]; irinotecan at 4×10^−6 M) was “≈ 20%”, the biodistribution of irinotecan [5] was “mainly in the liver, kidney, and intestines” and the biodistribution of irinotecan [6] was “majorly in the liver, kidney, and intestines”. The body weight (CT26 tumor) was “continuous decrease” and the “cytotoxicity to IEC-6 cells” value (IEC-6 cells) was “≈ 30%”.

With poly-L-lysine the “relative fluorescence intensity % of DiI/Lip-RFKH” value (HCT116 cells [1]) was “significant decreases”.
